# Article PMC6008299, “Impact of race on dose selection of molecular-targeted agents in early-phase oncology trials” (British Journal of Cancer, 2018)
# “Also recorded” adds a separate entry of the source.
# Tests used:
# [1] = tested on: patients with advanced, refractory solid tumours; test: Phase I dose-escalation study U101 (US): safety, DLT, MTD; assay type: in vivo
# Text: Studies were approved by the Institutional Review Board at the participating institutions and regulatory authorities. Written informed consent in English and Japanese was obtained from all patients prior to enrollment.
# Secondary and exploratory objectives were to evaluate PK, tumour response, and PD effects. Treatment-emergent adverse events (TEAE) were graded using the Common Terminology Criteria for Adverse Events version 4.0. A dose-limiting toxicity (DLT) was defined as a grade ≥3 clinically significant toxicity, with the exceptions of grade ≥4 anaemia and prolonged grade 3 neutropenia. Both studies were open-label, phase I dose-escalation studies. In Japan, the study was conducted at a single centre, while the US study was conducted at three sites. […] In the US, an accelerated titration design was used at low doses followed by a mCRM with EWOC. Briefly, the dose was escalated based on safety data in a single patient until a grade 2 or higher toxicity was observed during cycle 1 or the DLT period (days 1–28). […] Prophylactic granulocyte colony-stimulating factor and antiemetics were not permitted during cycle 1.
# [2] = tested on: advanced solid tumours; test: Tumour assessment RECIST 1.1, Japanese study; assay type: in vivo, human; details: Japan; of 25 patients
# Method: In both studies, the PK profile of DS-7423 was characterised during cycle 1 on days 1 and 8. For PD analysis, glucose, C-peptide, and Akt phosphorylation were measured in platelet-rich plasma collected at predose, 1, 2, 4, 6, and 24 h after dosing on days 1 and 15. Tumour assessment was performed every two cycles using Response Evaluation Criteria in Solid Tumours (RECIST) version 1.1 in both studies. 18F-Fluoro-2-deoxy-D-glucose positron emission tomography ([18F]-FDG) was performed as an exploratory endpoint at baseline and on day 4.[10]
smiles,measurement,setting,value
CC(=O)N1CCN(c2nc3c(N4CCOCC4)nc(-c4cnc(N)nc4)nc3n2CC(F)(F)F)C[C@H]1C [DS-7423],"AST increased (TEAE), n patients",[1]; 160 mg US cohort (n = 4),0
same,"Abdominal pain (TEAE), n patients",[1]; 160 mg US cohort (n = 4),1
same,"Back pain (TEAE), n patients",[1]; 160 mg US cohort (n = 4),0
same,"Blood creatinine increased (TEAE), n patients",[1]; 160 mg US cohort (n = 4),2
same,"Constipation (TEAE), n patients",[1]; 160 mg US cohort (n = 4),2
same,"Cough (TEAE), n patients",[1]; 160 mg US cohort (n = 4),0
same,"Decreased appetite (TEAE), n patients",[1]; 160 mg US cohort (n = 4),3
same,"Dehydration (TEAE), n patients",[1]; 160 mg US cohort (n = 4),1
same,"Diarrhoea (TEAE), n patients",[1]; 160 mg US cohort (n = 4),4
same,"Dry mouth (TEAE), n patients",[1]; 160 mg US cohort (n = 4),0
same,"Dysgeusia (TEAE), n patients",[1]; 160 mg US cohort (n = 4),1
same,"Dyspnea (TEAE), n patients",[1]; 160 mg US cohort (n = 4),0
same,"Edema (TEAE), n patients",[1]; 160 mg US cohort (n = 4),0
same,"Fatigue (TEAE), n patients",[1]; 160 mg US cohort (n = 4),4
same,"Hyperglycaemia (TEAE), n patients",[1]; 160 mg US cohort (n = 4),1
same,"Lung infection/ pneumonia (TEAE), n patients",[1]; 160 mg US cohort (n = 4),0
same,"Nausea (TEAE), n patients",[1]; 160 mg US cohort (n = 4),2
same,"Pyrexia (TEAE), n patients",[1]; 160 mg US cohort (n = 4),0
same,"Rash (TEAE), n patients",[1]; 160 mg US cohort (n = 4),0
same,"Stomatitis (TEAE), n patients",[1]; 160 mg US cohort (n = 4),1
same,"Vomiting (TEAE), n patients",[1]; 160 mg US cohort (n = 4),2
same,"Abdominal pain (TEAE), n patients",[1]; 240 mg US cohort (n = 9),4
same,"Back pain (TEAE), n patients",[1]; 240 mg US cohort (n = 9),3
same,"Blood creatinine increased (TEAE), n patients",[1]; 240 mg US cohort (n = 9),2
same,"Constipation (TEAE), n patients",[1]; 240 mg US cohort (n = 9),1
same,"Cough (TEAE), n patients",[1]; 240 mg US cohort (n = 9),0
same,"Decreased appetite (TEAE), n patients",[1]; 240 mg US cohort (n = 9),5
same,"Decreased appetite ≥G3, n patients",[1]; 240 mg US cohort (n = 9),1
same,"Dehydration (TEAE), n patients",[1]; 240 mg US cohort (n = 9),1
same,"Diarrhoea (TEAE), n patients",[1]; 240 mg US cohort (n = 9),5
same,"Dry mouth (TEAE), n patients",[1]; 240 mg US cohort (n = 9),3
same,"Dysgeusia (TEAE), n patients",[1]; 240 mg US cohort (n = 9),2
same,"Dyspnea (TEAE), n patients",[1]; 240 mg US cohort (n = 9),3
same,"Edema (TEAE), n patients",[1]; 240 mg US cohort (n = 9),1
same,"Fatigue (TEAE), n patients",[1]; 240 mg US cohort (n = 9),5
same,"Fatigue ≥G3, n patients",[1]; 240 mg US cohort (n = 9),1
same,"Hyperglycaemia (TEAE), n patients",[1]; 240 mg US cohort (n = 9),2
same,"Lung infection/ pneumonia (TEAE), n patients",[1]; 240 mg US cohort (n = 9),1
same,"Nausea (TEAE), n patients",[1]; 240 mg US cohort (n = 9),4
same,"Pyrexia (TEAE), n patients",[1]; 240 mg US cohort (n = 9),2
same,"Rash (TEAE), n patients",[1]; 240 mg US cohort (n = 9),0
same,"Stomatitis (TEAE), n patients",[1]; 240 mg US cohort (n = 9),5
same,"Stomatitis G3, n patients",[1]; 240 mg US cohort (n = 9),1
same,"Vomiting (TEAE), n patients",[1]; 240 mg US cohort (n = 9),3
same,"AST increased (TEAE), n patients","[1]; 240 mg US cohort (n = 9), cell marks ≥G3","2, ≥G3"
same,"AST increased (TEAE), n patients",[1]; 320 mg US cohort (n = 8),0
same,"Abdominal pain (TEAE), n patients",[1]; 320 mg US cohort (n = 8),0
same,"Back pain (TEAE), n patients",[1]; 320 mg US cohort (n = 8),0
same,"Blood creatinine increased (TEAE), n patients",[1]; 320 mg US cohort (n = 8),2
same,"Constipation (TEAE), n patients",[1]; 320 mg US cohort (n = 8),1
same,"Cough (TEAE), n patients",[1]; 320 mg US cohort (n = 8),1
same,"Decreased appetite (TEAE), n patients",[1]; 320 mg US cohort (n = 8),5
same,"Dehydration (TEAE), n patients",[1]; 320 mg US cohort (n = 8),3
same,"Dehydration G3, n patients",[1]; 320 mg US cohort (n = 8),1
same,"Diarrhoea (TEAE), n patients",[1]; 320 mg US cohort (n = 8),4
same,"Dry mouth (TEAE), n patients",[1]; 320 mg US cohort (n = 8),2
same,"Dysgeusia (TEAE), n patients",[1]; 320 mg US cohort (n = 8),5
same,"Dyspnea (TEAE), n patients",[1]; 320 mg US cohort (n = 8),2
same,"Edema (TEAE), n patients",[1]; 320 mg US cohort (n = 8),1
same,"Fatigue (TEAE), n patients",[1]; 320 mg US cohort (n = 8),6
same,"Fatigue G3, n patients",[1]; 320 mg US cohort (n = 8),1
same,"Hyperglycaemia (TEAE), n patients",[1]; 320 mg US cohort (n = 8),3
same,"Nausea (TEAE), n patients",[1]; 320 mg US cohort (n = 8),5
same,"Pyrexia (TEAE), n patients",[1]; 320 mg US cohort (n = 8),2
same,"Rash (TEAE), n patients",[1]; 320 mg US cohort (n = 8),3
same,"Stomatitis (TEAE), n patients",[1]; 320 mg US cohort (n = 8),1
same,"Vomiting (TEAE), n patients",[1]; 320 mg US cohort (n = 8),4
same,"Lung infection/ pneumonia (TEAE), n patients","[1]; 320 mg US cohort (n = 8), cell marks G3","1, G3"
same,"AST increased (TEAE), n patients",[1]; 2–28 mg US cohort (n = 10),3
same,"AST increased ≥G3, n patients",[1]; 2–28 mg US cohort (n = 10),1
same,"Abdominal pain (TEAE), n patients",[1]; 2–28 mg US cohort (n = 10),0
same,"Back pain (TEAE), n patients",[1]; 2–28 mg US cohort (n = 10),5
same,"Blood creatinine increased (TEAE), n patients",[1]; 2–28 mg US cohort (n = 10),0
same,"Constipation (TEAE), n patients",[1]; 2–28 mg US cohort (n = 10),3
same,"Cough (TEAE), n patients",[1]; 2–28 mg US cohort (n = 10),2
same,"Decreased appetite (TEAE), n patients",[1]; 2–28 mg US cohort (n = 10),3
same,"Dehydration (TEAE), n patients",[1]; 2–28 mg US cohort (n = 10),0
same,"Diarrhoea (TEAE), n patients",[1]; 2–28 mg US cohort (n = 10),5
same,"Dry mouth (TEAE), n patients",[1]; 2–28 mg US cohort (n = 10),3
same,"Dysgeusia (TEAE), n patients",[1]; 2–28 mg US cohort (n = 10),0
same,"Dyspnea (TEAE), n patients",[1]; 2–28 mg US cohort (n = 10),2
same,"Edema (TEAE), n patients",[1]; 2–28 mg US cohort (n = 10),2
same,"Fatigue (TEAE), n patients",[1]; 2–28 mg US cohort (n = 10),7
same,"Fatigue ≥G3, n patients",[1]; 2–28 mg US cohort (n = 10),2
same,"Hyperglycaemia (TEAE), n patients",[1]; 2–28 mg US cohort (n = 10),0
same,"Nausea (TEAE), n patients",[1]; 2–28 mg US cohort (n = 10),6
same,"Pyrexia (TEAE), n patients",[1]; 2–28 mg US cohort (n = 10),1
same,"Rash (TEAE), n patients",[1]; 2–28 mg US cohort (n = 10),2
same,"Stomatitis (TEAE), n patients",[1]; 2–28 mg US cohort (n = 10),1
same,"Vomiting (TEAE), n patients",[1]; 2–28 mg US cohort (n = 10),4
same,"Lung infection/ pneumonia (TEAE), n patients","[1]; 2–28 mg US cohort (n = 10), cell marks G3","1, G3"
same,"AST increased (TEAE), n patients",[1]; 48–80 mg US cohort (n = 11),1
same,"Abdominal pain (TEAE), n patients",[1]; 48–80 mg US cohort (n = 11),1
same,"Back pain (TEAE), n patients",[1]; 48–80 mg US cohort (n = 11),1
same,"Blood creatinine increased (TEAE), n patients",[1]; 48–80 mg US cohort (n = 11),0
same,"Constipation (TEAE), n patients",[1]; 48–80 mg US cohort (n = 11),0
same,"Cough (TEAE), n patients",[1]; 48–80 mg US cohort (n = 11),3
same,"Decreased appetite (TEAE), n patients",[1]; 48–80 mg US cohort (n = 11),2
same,"Diarrhoea (TEAE), n patients",[1]; 48–80 mg US cohort (n = 11),4
same,"Dry mouth (TEAE), n patients",[1]; 48–80 mg US cohort (n = 11),3
same,"Dysgeusia (TEAE), n patients",[1]; 48–80 mg US cohort (n = 11),2
same,"Dyspnea (TEAE), n patients",[1]; 48–80 mg US cohort (n = 11),1
same,"Edema (TEAE), n patients",[1]; 48–80 mg US cohort (n = 11),1
same,"Fatigue (TEAE), n patients",[1]; 48–80 mg US cohort (n = 11),5
same,"Fatigue ≥G3, n patients",[1]; 48–80 mg US cohort (n = 11),1
same,"Hyperglycaemia (TEAE), n patients",[1]; 48–80 mg US cohort (n = 11),2
same,"Lung infection/ pneumonia (TEAE), n patients",[1]; 48–80 mg US cohort (n = 11),0
same,"Nausea (TEAE), n patients",[1]; 48–80 mg US cohort (n = 11),6
same,"Pyrexia (TEAE), n patients",[1]; 48–80 mg US cohort (n = 11),2
same,"Rash (TEAE), n patients",[1]; 48–80 mg US cohort (n = 11),4
same,"Rash G3, n patients",[1]; 48–80 mg US cohort (n = 11),1
same,"Stomatitis (TEAE), n patients",[1]; 48–80 mg US cohort (n = 11),3
same,"Vomiting (TEAE), n patients",[1]; 48–80 mg US cohort (n = 11),3
same,"Dehydration (TEAE), n patients","[1]; 48–80 mg US cohort (n = 11), cell marks G3","1, G3"
same,MTD,[1]; US study,240 mg
same,Grade 3 DLT,"[1]; US study, 48 mg",rash
same,Grade 3 DLT,"[1]; US study, 240 mg",stomatitis; also recorded: fatigue and dehydration
same,Patients with DLT,"[1]; US study, of 34 DLT-evaluable patients",4
same,Patients with tumour shrinkage and durable disease control,[2],5
